Assay results reported in the supplement of paper PMC10307832.

What was measured:
Assay in all cases: relative viability (nuclei count vs DMSO), 5 days (fraction); higher = more cells survive
[1] = compound: CC1(COc2ccc3c(c2)ncn3-c2ccc3cccc(N4CCC(N)CC4)c3n2)COC1 [Crenolanib] + C[C@]1(O)C[C@@H](c2nc(-c3ccc4ccc(-c5ccccc5)nc4c3)c3c(N)nccn32)C1 [Linsitinib] (partner 1 µM)
Outline: (§1)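 Lung cancer cell lines were pin-tool dosed in 1536-well plates on the day after seeding, with either a lone drug or a fixed anchor-drug dose plus five library-drug doses (not always all listed) in √10 steps. Nuclei were counted on 4× images after 5 days. Relative viability is the ratio of treated-well to vehicle-well nuclei counts, with each value a median of duplicate plates.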

[2] = compound: CC1(COc2ccc3c(c2)ncn3-c2ccc3cccc(N4CCC(N)CC4)c3n2)COC1 [Crenolanib] + CC(C)C[C@H](NC(=O)[C@H](Cc1ccccc1)NC(=O)c1cnccn1)B(O)O [Bortezomib] (partner 0.002 µM)
Outline: as §1

[3] = compound: O=C1NC(=O)[C@@H](c2cn3c4c(cccc24)CCC3)[C@@H]1c1c[nH]c2ccccc12 [Tivantinib] + CC(=O)c1c(C)c2cnc(Nc3ccc(N4CCNCC4)cn3)nc2n(C2CCCC2)c1=O [Palbociclib] (partner 0.5 µM)
Outline: as §1

[4] = compound: O=C1NC(=O)[C@@H](c2cn3c4c(cccc24)CCC3)[C@@H]1c1c[nH]c2ccccc12 [Tivantinib] + Cc1nc(Nc2ncc(C(=O)Nc3c(C)cccc3Cl)s2)cc(N2CCN(CCO)CC2)n1 [Dasatinib] (partner 0.075 µM)
Outline: as §1

| Cell Line | relative viability ([1]; first compound 0.01 µM) | relative viability ([1]; first compound 0.03162 µM) | relative viability ([1]; first compound 0.1 µM) | relative viability ([1]; first compound 0.3162 µM) | relative viability ([1]; first compound 1 µM) | relative viability ([2]; first compound 0.01 µM) | relative viability ([2]; first compound 0.03162 µM) | relative viability ([2]; first compound 0.1 µM) | relative viability ([2]; first compound 0.3162 µM) | relative viability ([2]; first compound 1 µM) | relative viability ([3]; first compound 0.01 µM) | relative viability ([3]; first compound 0.03162 µM) | relative viability ([3]; first compound 0.1 µM) | relative viability ([3]; first compound 0.3162 µM) | relative viability ([4]; first compound 0.03162 µM) | relative viability ([4]; first compound 0.1 µM) | relative viability ([4]; first compound 0.3162 µM) | relative viability ([4]; first compound 0.01 µM) |
| --- | --- | --- | --- | --- | --- | --- | --- | --- | --- | --- | --- | --- | --- | --- | --- | --- | --- | --- |
| NCI-H2228 | 0.762 | 0.591 | 0.565 | 0.691 | 0.729 | 1.11 | 0.922 | 0.776 | 1.01 | 0.887 | 0.895 | 0.794 | 0.652 | 0.602 | 0.484 | 0.539 | 0.352 | – |
| NCI-H2347 | 0.972 | 1.02 | 0.736 | 1.04 | 0.873 | 1.16 | 0.724 | – | 0.727 | 1.19 | 0.399 | 0.472 | 0.422 | 0.381 | 0.267 | 0.283 | 0.306 | 0.345 |
| NCI-H2405 | 1.15 | 0.923 | 0.661 | 0.794 | 0.859 | 0.998 | 0.964 | 0.921 | 1.05 | 0.976 | 0.565 | 0.584 | 0.486 | 0.536 | 0.213 | 0.218 | 0.169 | 0.213 |
| NCI-H3122 | 1.03 | 1 | 0.994 | 1.07 | 1.05 | 1.08 | 1.01 | 1.04 | 1.05 | 1.16 | 0.208 | 0.216 | 0.164 | 0.186 | 0.808 | 0.788 | 0.686 | 0.808 |
| PC-3 [JPC-3] | 0.965 | 0.956 | 0.899 | 0.988 | 0.887 | 0.814 | 0.889 | 0.779 | 0.831 | 0.749 | 0.482 | 0.6 | 0.508 | 0.491 | 1.02 | 0.988 | 0.585 | 0.962 |
| PC-14 | 1.07 | 0.93 | 1.03 | 1.05 | 0.93 | 0.908 | 0.809 | 0.785 | 0.995 | 0.948 | 0.594 | 0.578 | 0.499 | 0.536 | 0.27 | 0.234 | 0.0998 | 0.29 |
| RERF-LC-KJ | 0.851 | 0.937 | 0.905 | 0.919 | 0.944 | 1.26 | 1.15 | 1.11 | 1.1 | 1.12 | 0.644 | 1.1 | 1.01 | 0.647 | 0.895 | 0.757 | 0.585 | 0.873 |
| SK-LU-1 | 1.09 | 0.649 | 0.869 | 1.16 | 0.809 | 1.42 | 1.11 | 0.937 | 1.33 | 1 | 0.42 | 0.394 | 0.423 | 0.34 | 0.178 | 0.173 | 0.169 | 0.186 |
| SW 1573 | 0.873 | 0.841 | 0.704 | 0.96 | 0.81 | 1.04 | 1.15 | 0.996 | 1.29 | 1.15 | 0.464 | 0.384 | 0.32 | 0.343 | 0.481 | 0.453 | 0.548 | 0.717 |
